One data set has as its system HUVEC. The experiment in a line: VEGF165-stimulated HUVEC growth, MTT assay. The data set is classed as cell-based. The note with it: Homo sapiens, induced by VEGF165 (50 ng/mL), read-out: IC50, HUVEC proliferation. The source says:
The inhibition effect of YLT192 on VEGF165-stimulated HUVEC growth was examined using MTT assay.
A general note: Formazan colour is commonly taken as a measure of viable cells.

For data set [1] the following is noted: mouse, in vivo. How it is done: All the HCT116 model mice were sacrificed after 24 days of treatment.
During the treatment of human colorectal carcinoma HCT116 xenograft on nude mice, they were also observed every day to investigate the side effects and toxicities after YLT192's longer time administration. Finally, serum biochemistry, hematological analysis, organ coefficients and histological examinations of heart, liver, spleen, lung, and kidney were carried out after dissection. Serum chemistry and hematological analysis was carried out.
in normal tissues. After the treatment of HCT116 xenograft, heart, liver, spleen, lung
and kidney of the mice were isolated and stained with H&E (n=6 mice per group).
Scale bars represent 50μm.
(1 picture or pasted object on this page, not shown here)

For the next data set, the system named is HCT116 cells. The data set can be described thus: Western blot of oncogenic signaling pathways. To be noted: 48 h. In kind it is cell-based, human. As to the method:
(§1) Figure 4 Inhibitory effects of YLT192 on tumor cells. (A) YLT192 inhibited U251 and HCT116 cells proliferation. The EdU incorporation assay was conducted on U251 and HCT116 cells after treated with YLT192 for 24 hours. The EdU-positive (red fluorescent staining) cells and Hoechst staining (blue fluorescent staining) cells represented proliferating and total cells in the fluorescent images, respectively (100×). Quantification was shown on the right panels. (B) YLT192 induced apoptosis of HCT116 cells. HCT116 cells were treated with YLT192 or vehicle for 48 hours followed by flow cytometric analysis of annexin V-FITC and PI staining. […] Typical apoptosis-related proteins caspase 3 and Bax were detected by western blot. […] U251 and HCT116 cells were treated with YLT192 or vehicle for 48 hours and the expression of protein in different signaling pathways were detected by western blot with specific antibodies. […]
(§2) To gain further insight into the molecular mechanism of the inhibitory effects of YLT192 on tumor cells we evaluated the expression of p44/42 MAPK, STAT3, AKT, and mammalian target of rapamycin (mTOR) in U251 and HCT116 cells 48 h after treatment.
(§3) Supplementary Figure S8. […] U251 and HCT116 cells were treated with YLT192 or vehicle for 48 hours and the expression of protein in different signaling pathways were detected by western blot with specific antibodies. […]
In general terms: A western blot detects proteins with antibodies after separation by electrophoresis.

The test system of another data set is U251 cells. The experiment in a line: Western blot of oncogenic signaling pathways. The data set is classed as cell-based, human. The note with it: 48 h. As to the method: as §1, §2, §3
A further data set deals with SKOV-3. The experiment in a line: Inhibition of tumor cell growth. To be noted: SK-OV-3; SKOV-3, human ovarian carcinoma; 48 hour treatment; means ± SD, n=3. In kind it is cell-based. An excerpt: (§4) Data are means ± SD, n=3.
(§5) cell line cell type IC50(μM) […]

Another data set deals with MCF-7. The data set can be described thus: Inhibition of tumor cell growth. In kind it is cell-based. To be noted: MCF7; MCF-7, human mammary carcinoma; 48 hour treatment; means ± SD, n=3.
Text: as §4, §5

The test system of a further data set is MV4-11. The experiment in a line: Inhibition of tumor cell growth. The data set is classed as cell-based. The note with it: MV4-11, human acute myeloid leukemia; 48 hour treatment; means ± SD, n=3.
Text: as §4, §5

A further data set deals with SW620. The data set can be described thus: Inhibition of tumor cell growth. The note with it: SW-620; SW620, human colorectal carcinoma; 48 hour treatment; means ± SD, n=3. The data set is classed as cell-based.
Text: as §4, §5

Another data set relates to MDA-MB-231. The experiment in a line: Inhibition of tumor cell growth. In kind it is cell-based. To be noted: MDA-MB-231, human mammary carcinoma; 48 hour treatment; means ± SD, n=3.
Text: as §4, §5

The subject of another data set is LS147T. The experiment in a line: Inhibition of tumor cell growth. To be noted: human colorectal carcinoma, 48 hour treatment, means ± SD, n=3. The data set is classed as cell-based.
Text: as §4, §5

A further data set concerns SMMC-7721. The data set can be described thus: Inhibition of tumor cell growth. The data set is classed as cell-based. To be noted: SMMC-7721, human hepatocellular carcinoma; 48 hour treatment; means ± SD, n=3.
Text: as §4, §5

A further data set concerns Hela. The data set can be described thus: Inhibition of tumor cell growth. The data set is classed as cell-based. To be noted: human epithelial carcinoma, 48 hour treatment, means ± SD, n=3.
Text: as §4, §5

The subject of another data set is SPC-A1. The data set can be described thus: Inhibition of tumor cell growth. In kind it is cell-based. To be noted: SPCA1; SPC-A1, human lung cancer; 48 hour treatment; means ± SD, n=3.
Text: as §4, §5

A further data set deals with A431. The experiment in a line: Inhibition of tumor cell growth. The note with it: A-431; A431, human pidermoid carcinoma; 48 hour treatment; means ± SD, n=3. In kind it is cell-based.
Text: as §4, §5

The subject of the next data set is BEL7402. The experiment in a line: Inhibition of tumor cell growth. The data set is classed as cell-based. To be noted: Bel-7402; BEL7402, human hepatocellular carcinoma; 48 hour treatment; means ± SD, n=3.
Text: as §4, §5

This note sets out measurements from paper PMC4129416, “YLT192, a Novel, Orally Active Bioavailable Inhibitor of VEGFR2 Signaling with Potent Antiangiogenic Activity and Antitumor Efficacy in Preclinical Models” (Scientific Reports, 2014).

Turning to `CNC(=O)c1cc(Oc2ccc(NC(=O)c3cccc(OC)c3)cc2)ccn1` [YLT192], the IC50 was 2.3 µM in the data set on HUVEC; 8.2 ± 1.5 µM in the data set with SKOV-3; 16.8 ± 1.7 µM in the data set with MCF-7; 21.9 ± 1.9 µM in the data set with MV4-11; 7.9 ± 1.7 µM in the data set with SW620; 11.9 ± 2.1 µM in the data set with MDA-MB-231. Also, the IC50 with LS147T was found to be 9 ± 1.1 µM; in the data set on SMMC-7721, 12.1 ± 1.6 µM; with Hela, 18.9 ± 2.4 µM; in the data set with SPC-A1, 16.4 ± 1.4 µM; in the data set on A431 it was 7.7 ± 0.9 µM; with BEL7402, 11.3 ± 1.1 µM. Also, in [1], the “adverse effects, such as diarrhea or toxic death” value is listed as “did not observed adverse effects”. Further, the “microscopic examination of the heart, liver, spleen, lung, and kidney” value in data set [1] was “no pathological changes”. Further, the “expression of phosphorylated p44/42 MAPK, STAT3, AKT, and mTOR” value in the data set with HCT116 cells and in the data set on U251 cells was “dramatically decreased” in each case.
